Assay results taken from PubChem BioAssay (NCI).
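Grown in 96-well plates, cells were treated for 48 hours with each compound at five concentrations. Insufficient inhibition: endpoint recorded as highest concentration tested. Abbreviation: GI50, concentration required for 50% inhibition of growth. TGI is the concentration that stops growth completely.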

Legend:
Assay in all cases: NCI anticancer screen, dose series, 48 h
786-0 renal = test system: 786-0 renal
A498 renal = test system: A498 renal
A549 NSCLC = test system: A549 NSCLC
ACHN renal = test system: ACHN renal
BT-549 breast = test system: BT-549 breast
CAKI-1 renal = test system: CAKI-1 renal
CCRF-CEM leukemia = test system: CCRF-CEM leukemia
COLO 205 colon = test system: COLO 205 colon
DU-145 prostate = test system: DU-145 prostate
EKVX NSCLC = test system: EKVX NSCLC
HCC-2998 colon = test system: HCC-2998 colon
HCT-116 colon = test system: HCT-116 colon
HCT-15 colon = test system: HCT-15 colon
HL-60(TB) leukemia = test system: HL-60(TB) leukemia
HOP-62 NSCLC = test system: HOP-62 NSCLC
HOP-92 NSCLC = test system: HOP-92 NSCLC
HS 578T breast = test system: HS 578T breast
HT29 colon = test system: HT29 colon
IGROV1 ovarian = test system: IGROV1 ovarian
K-562 leukemia = test system: K-562 leukemia
KM12 colon = test system: KM12 colon
LOX IMVI melanoma = test system: LOX IMVI melanoma
M14 melanoma = test system: M14 melanoma
MALME-3M melanoma = test system: MALME-3M melanoma
MCF7 breast = test system: MCF7 breast
MDA-MB-231 breast = test system: MDA-MB-231 breast
MDA-MB-435 = test system: MDA-MB-435
MOLT-4 leukemia = test system: MOLT-4 leukemia
NCI-H226 lung = test system: NCI-H226 lung
NCI-H23 lung = test system: NCI-H23 lung
NCI-H460 lung = test system: NCI-H460 lung
NCI-H522 lung = test system: NCI-H522 lung
NCI/ADR-RES ovarian = test system: NCI/ADR-RES ovarian
OVCAR-3 ovarian = test system: OVCAR-3 ovarian
OVCAR-4 ovarian = test system: OVCAR-4 ovarian
OVCAR-5 ovarian = test system: OVCAR-5 ovarian
OVCAR-8 ovarian = test system: OVCAR-8 ovarian
PC-3 prostate = test system: PC-3 prostate
RPMI-8226 leukemia = test system: RPMI-8226 leukemia
RXF 393 renal = test system: RXF 393 renal
SF-268 CNS = test system: SF-268 CNS
SF-295 CNS = test system: SF-295 CNS
SF-539 CNS = test system: SF-539 CNS
SK-MEL-2 melanoma = test system: SK-MEL-2 melanoma
SK-MEL-28 melanoma = test system: SK-MEL-28 melanoma
SK-MEL-5 melanoma = test system: SK-MEL-5 melanoma
SK-OV-3 ovarian = test system: SK-OV-3 ovarian
SN12C renal = test system: SN12C renal
SNB-19 CNS = test system: SNB-19 CNS
SNB-75 CNS = test system: SNB-75 CNS
SR leukemia = test system: SR leukemia
SW-620 colon = test system: SW-620 colon
T-47D breast = test system: T-47D breast
TK-10 renal = test system: TK-10 renal
U251 CNS = test system: U251 CNS
UACC-257 melanoma = test system: UACC-257 melanoma
UACC-62 melanoma = test system: UACC-62 melanoma
UO-31 renal = test system: UO-31 renal

## O=C(c1ccco1)c1c(C(F)(F)F)nc2cc(C(F)(F)F)ccc2[n+]1[O-]
786-0 renal
  GI50: 36.7 µM
  TGI: > 100 µM
A498 renal
  GI50: 20.5 µM
  TGI: 63.8 µM
A549 NSCLC
  GI50: 48.4 µM
  TGI: > 100 µM
ACHN renal
  GI50: 82.1 µM
  TGI: > 100 µM
BT-549 breast
  GI50: 57.8 µM
  TGI: > 100 µM
CAKI-1 renal
  GI50: 19.7 µM
  TGI: 58.8 µM
CCRF-CEM leukemia
  GI50: 15.6 µM
  TGI: 44.3 µM
COLO 205 colon
  GI50: > 100 µM
  TGI: > 100 µM
DU-145 prostate
  GI50: 45.1 µM
  TGI: > 100 µM
EKVX NSCLC
  GI50: 50.6 µM
  TGI: > 100 µM
HCC-2998 colon
  GI50: > 100 µM
  TGI: > 100 µM
HCT-116 colon
  GI50: 33.4 µM
  TGI: > 100 µM
HCT-15 colon
  GI50: > 100 µM
  TGI: > 100 µM
HL-60(TB) leukemia
  GI50: > 100 µM
  TGI: > 100 µM
HOP-62 NSCLC
  GI50: 22.9 µM
  TGI: > 100 µM
HOP-92 NSCLC
  GI50: 16.5 µM
  TGI: 68.8 µM
HS 578T breast
  GI50: 26.7 µM
  TGI: 74.9 µM
HT29 colon
  GI50: > 100 µM
  TGI: > 100 µM
IGROV1 ovarian
  GI50: 26.5 µM
  TGI: 90.6 µM
K-562 leukemia
  GI50: 38.3 µM
  TGI: > 100 µM
KM12 colon
  GI50: > 100 µM
  TGI: > 100 µM
LOX IMVI melanoma
  GI50: 48.1 µM
  TGI: > 100 µM
M14 melanoma
  GI50: > 100 µM
  TGI: > 100 µM
MALME-3M melanoma
  GI50: 54.2 µM
  TGI: > 100 µM
MCF7 breast
  GI50: 35.3 µM
  TGI: > 100 µM
MDA-MB-231 breast
  GI50: 18.9 µM
  TGI: 40.9 µM
MDA-MB-435
  GI50: > 100 µM
  TGI: > 100 µM
MOLT-4 leukemia
  GI50: > 100 µM
  TGI: > 100 µM
NCI-H226 lung
  GI50: > 100 µM
  TGI: > 100 µM
NCI-H23 lung
  GI50: 48.4 µM
  TGI: > 100 µM
NCI-H460 lung
  GI50: 56 µM
  TGI: > 100 µM
NCI-H522 lung
  GI50: 65.8 µM
  TGI: > 100 µM
NCI/ADR-RES ovarian
  GI50: 67.2 µM
  TGI: > 100 µM
OVCAR-3 ovarian
  GI50: 37.8 µM
  TGI: > 100 µM
OVCAR-4 ovarian
  GI50: > 100 µM
  TGI: > 100 µM
OVCAR-5 ovarian
  GI50: 67.8 µM
  TGI: > 100 µM
OVCAR-8 ovarian
  GI50: 31.8 µM
  TGI: > 100 µM
PC-3 prostate
  GI50: 44.9 µM
  TGI: > 100 µM
RPMI-8226 leukemia
  GI50: 34.4 µM
  TGI: > 100 µM
RXF 393 renal
  GI50: 20.3 µM
  TGI: 80 µM
SF-268 CNS
  GI50: 24.6 µM
  TGI: 81.3 µM
SF-295 CNS
  GI50: 17.5 µM
  TGI: 40.4 µM
SF-539 CNS
  GI50: 21.2 µM
  TGI: 54.2 µM
SK-MEL-2 melanoma
  GI50: 69.3 µM
  TGI: > 100 µM
SK-MEL-28 melanoma
  GI50: > 100 µM
  TGI: > 100 µM
SK-MEL-5 melanoma
  GI50: > 100 µM
  TGI: > 100 µM
SK-OV-3 ovarian
  GI50: 20.3 µM
  TGI: 64.6 µM
SN12C renal
  GI50: 43.7 µM
  TGI: > 100 µM
SNB-19 CNS
  GI50: 40.7 µM
  TGI: > 100 µM
SNB-75 CNS
  GI50: 16.6 µM
  TGI: 42.7 µM
SR leukemia
  GI50: 33.7 µM
  TGI: > 100 µM
SW-620 colon
  GI50: > 100 µM
  TGI: > 100 µM
T-47D breast
  GI50: 18.9 µM
  TGI: 49.6 µM
TK-10 renal
  GI50: 28.6 µM
  TGI: > 100 µM
U251 CNS
  GI50: 34.7 µM
  TGI: > 100 µM
UACC-257 melanoma
  GI50: > 100 µM
  TGI: > 100 µM
UACC-62 melanoma
  GI50: > 100 µM
  TGI: > 100 µM
UO-31 renal
  GI50: 66.9 µM
  TGI: > 100 µM
